{"source": "patent US20220079912A1", "about": "“ANTICANCER FORMULATION” (University of Mississippi, priority 2018, published 2022)", "key": {"B16 cells": {"tested_on": "B16 cells", "assay": "Lactic acid export (intracellular lactic acid levels)", "format": "cell-based, mouse", "conditions": "FIG. 4", "method": "To prevent the buildup of lactic acid within the cell a family of monocarboxylate transporters (MCT) functions to transport lactic acid out of the cell (10). To determine if GH inhibits lactic acid export from the cell, and in this manner inhibits the accumulation of lactic acid in the cell culture medium, intracellular lactic acid levels were measured. If GH inhibited lactic acid export, treatment of cells with GH would result in the increase in intracellular lactic acid levels. As a positive control the MCT1 inhibitor AZD3965 was used."}, "PA-1 Ovarian cancer": {"tested_on": "PA-1 Ovarian cancer", "assay": "Colony formation assay, combination with DHEA", "format": "cell-based, human", "conditions": "PA-1, 24 h, FIG. 20"}, "[1]": {"tested_on": "MDA-MB-231 breast cancer cells", "assay": "Colony formation assay, combination with DHEA", "format": "cell-based, human", "conditions": "MDA-MB-231, 24 h, FIG. 20"}, "[2]": {"tested_on": "MDA-MB-231 human breast cancer cells", "assay": "Lactic acid accumulation in cell culture medium", "format": "cell-based", "conditions": "MDA-MB-231, FIG. 2C", "description": "(§1) During cell survival experiments the acidification of the cell culture medium was inhibited when GH was present. Acidification of the cell culture medium occurs because of the enhanced use of glycolysis by transformed cells (and resulting increase in lactic acid production). This led us to investigate whether GH reduced lactic acid levels in the cell culture medium."}, "B16 mouse melanoma cells [3]": {"tested_on": "B16 mouse melanoma cells", "assay": "Lactic acid accumulation in cell culture medium", "format": "cell-based", "conditions": "B16, FIG. 2A", "description": "as §1"}, "KB (HeLa)": {"tested_on": "KB (HeLa)", "assay": "Combination cytotoxicity with phenformin", "format": "cell-based", "conditions": "data not shown"}, "Colo320DM colon cancer": {"tested_on": "Colo320DM colon cancer", "assay": "Colony formation assay, combination with DHEA", "format": "cell-based, human", "conditions": "24 h, FIG. 20"}, "[4]": {"tested_on": "MDA-MB-231 human breast cancer cells", "assay": "Cell proliferation / cell survival", "format": "cell-based", "conditions": "MDA-MB-231, varying concentrations, 48 hours, dose dependent, FIG. 1", "method": "(§2) Example 1: trans-Gnetin H (GH)—Trans-Gnetin H inhibits cell proliferation. […] B16 mouse melanoma cells, T98G glioblastoma cells, and MDA-MB-231 human breast cancer cells were treated with varying concentrations of GH for 48 hours with cell survival measured. The B16 mouse melanoma cell line was the most sensitive to the anti-proliferative action of GH, perhaps due to the highly glycolytic nature of these cells and/or that they contain wild type p53."}, "B16 mouse melanoma cells [5]": {"tested_on": "B16 mouse melanoma cells", "assay": "Cell proliferation / cell survival", "format": "cell-based", "conditions": "B16, varying concentrations, 48 hours, dose dependent, FIG. 1", "method": "as §2"}, "[6]": {"tested_on": "T98G human glioblastoma cells", "assay": "Lactic acid accumulation in cell culture medium", "format": "cell-based", "conditions": "FIG. 2B"}, "T98G cells [7]": {"tested_on": "T98G cells", "assay": "Glucose transport (2-NBDG accumulation)", "format": "cell-based, human", "conditions": "treated for one hour followed by 2-NBDG for one hour"}, "KHOS": {"tested_on": "KHOS", "assay": "Combination cytotoxicity with phenformin", "format": "cell-based", "conditions": "data not shown"}, "[8]": {"tested_on": "BNC6 patient derived Glioblastoma cells", "assay": "Colony formation assay, combination with DHEA", "format": "cell-based, human", "conditions": "BNC6, 24 h, FIG. 20"}, "[9]": {"tested_on": "BNC41 patient derived Glioblastoma cells", "assay": "Colony formation assay, combination with DHEA", "format": "cell-based, human", "conditions": "BNC41, 24 h, FIG. 20"}, "[10]": {"tested_on": "cancer stem cells (CSCs) grown from BNC6 patient derived Glioblastoma cells", "assay": "Cell viability by Trypan Blue exclusion cell count, combination with DHEA", "format": "cell-based, human", "conditions": "24 h, FIGS. 22A-B"}, "TXNIP protein levels [11]": {"tested_on": "TXNIP protein levels", "assay": "Western blot of TXNIP protein, MDA-MB-231 cell line", "format": "cell-based, human", "conditions": "FIG. 16, FIG. 18", "description": "(§3) AMPK activation has been previously shown to phosphorylate and cause the degradation of TXNIP during energy stress (13)."}, "T98G cells [12]": {"tested_on": "T98G cells", "assay": "Apoptosis, annexin V/propidium iodide (PI) staining", "format": "cell-based, human", "conditions": "FIG. 10", "description": "This additional target remains to be identified."}, "SKOV-3 ovarian cancer": {"tested_on": "SKOV-3 ovarian cancer", "assay": "Colony formation assay, combination with DHEA", "format": "cell-based, human", "conditions": "SKOV-3, 24 h, FIG. 20"}, "ARRDC4 mRNA": {"tested_on": "ARRDC4 mRNA", "assay": "Differential gene expression analysis (RNA-Seq) in T98G cells", "format": "cell-based, human", "conditions": "2 hours, GH 8 μM, 2-DG 25 mM, Ph 100, minus = reduced, plus = increase, NC = no change", "description": "GH inhibits expression of TXNIP and ARRDC4 mRNAs. […] Since the transcription factors (MondoA/Mlx complex) regulating the expression of the TXNIP gene is thought to be controlled by intermediates in the upper portion of the glycolytic pathway (12), GH may be negatively impacting this portion of glycolysis. Reduction in the levels of these intermediates by GH would prevent activation of the MondoA/Mlx transcription complex and would result in suppression of TXNIP transcription and TXNIP mRNA levels. Both of these gene products (TXNIP and ARRDC4) are thought to suppress glucose transport by enhancing degradation of glucose transporters (12)."}, "T98G glioblastoma cells": {"tested_on": "T98G glioblastoma cells", "assay": "Colony formation assay, combination with DHEA", "format": "cell-based, human", "conditions": "12 h (other inhibitors 24 h), FIG. 19", "method": "GH, a glycolysis inhibitor, is cytotoxic to human tumor cells when used in combination with a Glucose-6-Phosphate Dehydrogenase inhibitor, dehydroepiandrosterone, (DHEA). To compensate for high ROS levels, cancer cells increase glycolysis and pentose phosphate cycle to provide reducing equivalents (NADH and NADPH) to neutralize hydro peroxides (15). […] The other glycolysis inhibitors tested in combination with DHEA were ineffective even at 24 h."}, "TXNIP protein levels [13]": {"tested_on": "TXNIP protein levels", "assay": "Western blot of TXNIP protein, T98G cell line", "format": "cell-based, human", "conditions": "FIG. 15, FIG. 17", "description": "as §3"}, "[14]": {"tested_on": "cancer stem cell (CSC) populations from two patients with Temodar (TMZ)-resistant glioblastoma", "assay": "Combination cytotoxicity with Paw Paw acetogenin extract", "format": "cell-based, human", "conditions": "GH 4 μM, FIG. 11", "description": "(§4) Example 3: Paw Paw Extract."}, "[15]": {"tested_on": "bulk tumor cells from two patients with Temodar (TMZ)-resistant glioblastoma", "assay": "Combination cytotoxicity with Paw Paw acetogenin extract", "format": "cell-based, human", "conditions": "GH 4 μM, FIG. 11", "description": "as §4"}, "SK-MEL": {"tested_on": "SK-MEL", "assay": "Combination cytotoxicity with phenformin", "format": "cell-based", "conditions": "data not shown"}, "[16]": {"tested_on": "Mia-PACA pancreatic cancer", "assay": "Colony formation assay, combination with DHEA", "format": "cell-based, human", "conditions": "24 h, FIG. 20"}, "[17]": {"tested_on": "BNC3 patient derived Glioblastoma cells", "assay": "Colony formation assay, combination with DHEA", "format": "cell-based, human", "conditions": "BNC3, 24 h, FIG. 20"}, "[18]": {"conditions": "GH 8 μM 6 hrs or 3 hrs, 2-DG 25 mM, OXA 25 mM, BPX 25 μM, DCA 25 mM, 6 hr"}}, "data": [{"compound": "Oc1ccc(/C=C/c2c3c(cc4c2[C@H](c2cc(O)cc(O)c2)[C@@H](c2ccc(O)cc2)O4)O[C@H](c2ccc(O)cc2)[C@H]3c2cc(O)cc(O)c2)cc1", "note": "(relative stereo) [GH, trans-Gnetin H]", "values": [{"measurement": "effect on intracellular lactic acid", "setting": "B16 cells", "value": "did not increase intracellular lactic acid"}, {"measurement": "cytotoxicity in combination with DHEA (cell staining)", "setting": "PA-1 Ovarian cancer", "value": "cytotoxic"}, {"measurement": "cytotoxicity in combination with DHEA (cell staining)", "setting": "[1]", "value": "cytotoxic"}, {"measurement": "lactic acid production", "setting": "[2]", "value": "inhibits lactic acid production"}, {"measurement": "lactic acid production", "setting": "B16 mouse melanoma cells [3]", "value": "inhibits lactic acid production"}, {"measurement": "synergistic cytotoxicity with phenformin", "setting": "KB (HeLa)", "value": "synergistically cytotoxic"}, {"measurement": "cytotoxicity in combination with DHEA (cell staining)", "setting": "Colo320DM colon cancer", "value": "cytotoxic"}, {"measurement": "inhibition of cell proliferation (cell survival)", "setting": "[4]", "value": "inhibits the proliferation"}, {"measurement": "inhibition of cell proliferation (cell survival)", "setting": "B16 mouse melanoma cells [5]", "value": "inhibits the proliferation"}, {"measurement": "lactic acid production", "setting": "[6]", "value": "inhibits lactic acid production"}, {"measurement": "effect on accumulation of 2-NBDG (glucose transport)", "setting": "T98G cells [7]", "value": "did not influence the accumulation"}, {"measurement": "synergistic cytotoxicity with phenformin", "setting": "KHOS", "value": "synergistically cytotoxic"}, {"measurement": "cytotoxicity in combination with DHEA (cell staining)", "setting": "[8]", "value": "cytotoxic"}, {"measurement": "cytotoxicity in combination with DHEA (cell staining)", "setting": "[9]", "value": "cytotoxic"}, {"measurement": "cytotoxicity in combination with DHEA (percentage of cell viability)", "setting": "[10]", "value": "cytotoxic"}, {"measurement": "TXNIP protein levels, in combination with Ph", "setting": "TXNIP protein levels [11]", "value": "reduction of TXNIP protein levels"}, {"measurement": "TXNIP protein levels, agent alone", "setting": "TXNIP protein levels [11]; [18]", "value": "dramatic reduction in the levels of TXNIP protein"}, {"measurement": "induction of apoptosis in combination with Paw Paw extract (PP)", "setting": "T98G cells [12]", "value": "extensive induction of apoptosis"}, {"measurement": "induction of apoptosis in combination with phenformin (Ph)", "setting": "T98G cells [12]", "value": "extensive induction of apoptosis"}, {"measurement": "cytotoxicity in combination with DHEA (cell staining)", "setting": "SKOV-3 ovarian cancer", "value": "cytotoxic"}, {"measurement": "ARRDC4 mRNA fold change", "setting": "ARRDC4 mRNA", "value": "−6", "unit": "fold"}, {"measurement": "cytotoxicity in combination with DHEA (cell staining)", "setting": "T98G glioblastoma cells", "value": "rapidly cytotoxic"}, {"measurement": "TXNIP protein levels, in combination with Ph", "setting": "TXNIP protein levels [13]", "value": "reduction of TXNIP protein levels"}, {"measurement": "TXNIP protein levels, agent alone", "setting": "TXNIP protein levels [13]; [18]", "value": "dramatic reduction in the levels of TXNIP protein"}, {"measurement": "synergistic cytotoxicity in combination with acetogenin extract from Paw Paw (PP-2 μg/ml)", "setting": "[14]", "value": "synergistically cytotoxic"}, {"measurement": "synergistic cytotoxicity in combination with acetogenin extract from Paw Paw (PP-2 μg/ml)", "setting": "[15]", "value": "synergistically cytotoxic"}, {"measurement": "synergistic cytotoxicity with phenformin", "setting": "SK-MEL", "value": "synergistically cytotoxic"}, {"measurement": "cytotoxicity in combination with DHEA (cell staining)", "setting": "[16]", "value": "cytotoxic"}, {"measurement": "cytotoxicity in combination with DHEA (cell staining)", "setting": "[17]", "value": "cytotoxic"}]}]}
